Results on 26 compounds are retold here after patent publication US20150119394A1, “Insulin-Like Growth Factor-1 Receptor Inhibitors” (Merck Sharp & Dohme Corp., priority 2012, published 2015).

Molecules are shown by their SMILES.

In this assay the target is T1, intracellular kinase domain of human IGF-1R (GST fusion protein) (Homo sapiens, UniProt P08069).
T1 construct: IGFRK and IRK enzyme used for the assay was intracellular kinase domain of human IGF-1R; GST; made in house
T1 sequence (P08069 999-1274 limits assumed): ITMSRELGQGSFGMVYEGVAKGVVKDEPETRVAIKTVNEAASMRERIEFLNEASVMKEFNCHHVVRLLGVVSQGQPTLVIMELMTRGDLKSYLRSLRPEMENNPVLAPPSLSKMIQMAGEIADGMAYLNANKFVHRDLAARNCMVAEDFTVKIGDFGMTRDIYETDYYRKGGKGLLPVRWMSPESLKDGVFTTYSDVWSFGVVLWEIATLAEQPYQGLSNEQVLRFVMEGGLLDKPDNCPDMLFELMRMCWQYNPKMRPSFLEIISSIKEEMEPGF
Kind of assay: In vitro IGF-1R kinase assay (HTRF). Format: biochemical. The settings on record: ATP 20 μM, IGFRK 0.25 nM. The procedure:
The in vitro kinase assays using IGF-1R and IR kinase GST fusion proteins were conducted using a homogeneous time-resolved fluorescence (HTRF) format. Kinase reactions were carried out in a 384-well plate format in a final volume of 20 μL. The standard enzyme reaction buffer consisted of 50 mM Tris HCL (pH: 7.4), 1 mM EGTA, 10 mM MgCl2, 2 mM DTT, 0.01% Tween-20, IGF-1R/IR kinase enzyme, poly GT peptide substrate (Perkin Elmer [Ulight Glu-Tyr (4:1)]n) and ATP [concentration equivalent to Kmapp] […] Briefly, 2.5 μL enzyme and 2.5 μL inhibitor was preincubated for 10 minutes at 23° C. followed by the addition of 2.5 μL of poly GT substrate (final concentration of 50 nM). Reaction was initiated with the addition of 2.5 μL of ATP (final concentration of 20 μM for IGF-1R assay and 10 μM for IR assay). After 1 hour incubation at 23° C., the kinase reaction was stopped with the addition of 5 μL EDTA (final concentration of 10 mM in 20 μL). Europium cryptate—labeled antiphosphotyrosine antibody PY20 (5 μL) was added (final concentration of 2 nM) and the mixture was allowed to equilibrate for 1 hour at 23° C. followed by reading the plate in an Envision plate reader.
The intensity of light emission at 665 nm was directly proportional to the level of substrate phosphorylation. The IC50 values for inhibitors were determined by a four-parameter sigmoidal curve fit (Sigma plot or Graph pad).
IGFRK and IRK enzyme used for the assay was intracellular kinase domain of human IGF-1R and human IR cloned and expressed as GST fusion proteins using the baculovirus expression system and purified using glutathione—Sepharose column.
The term IC50 denotes the concentration that inhibits the measured activity by half. Low values mean higher potency, high ones lower potency. Consider `NC(=O)c1[nH]c2ccc(Cl)cc2c1S(=O)(=O)N1CCO[C@H](COc2ccccc2-c2cccnc2)C1` [Compound 55, (S)-5-chloro-3-((2-((2-(pyridin-3-yl)phenoxy)methyl)morpholino)sulfonyl)-1H-indole-2-carboxamide], for which the IC50 was greater than 1000 nM.
The result for `Cc1ccc(-c2cccc(OC[C@@H]3CN(S(=O)(=O)c4c(C(N)=O)[nH]c5ccc(Cl)cc45)CCO3)c2)cn1` [Compound 4, (S)-5-chloro-3-((2-((3-(6-methylpyridin-3-yl)phenoxy)methyl)morpholino)sulfonyl)-1H-indole-2-carboxamide] reads 11.8 nM.
For `NC(=O)c1[nH]c2ccc(Cl)cc2c1S(=O)(=O)N1CCO[C@H](COc2ccccc2-c2cncnc2)C1` [Compound 60, (S)-5-chloro-3-((2-((2-(pyrimidin-5-yl)phenoxy)methyl)morpholino)sulfonyl)-1H-indole-2-carboxamide], the IC50 is greater than 1000 nM.
As to `NC(=O)c1[nH]c2ccc(Cl)cc2c1S(=O)(=O)N1CCO[C@H](COc2ccc(-c3ccccc3C(F)(F)F)cc2)C1` [Compound 38, (S)-5-chloro-3-((2-(((2′-(trifluoromethyl)-[1,1′-biphenyl]-4-yl)oxy)methyl)morpholino)sulfonyl)-1H-indole-2-carboxamide], the midpoint of inhibition, the IC50, lay at 113 nM.
With `COc1ccc(-c2ccc(OC[C@@H]3CN(S(=O)(=O)c4c(C(N)=O)[nH]c5ccc(Cl)cc45)CCO3)cc2)cc1` [Compound 39, (S)-5-chloro-3-((2-(((4′-methoxy-[1,1′-biphenyl]-4-yl)oxy)methyl)morpholino)sulfonyl)-1H-indole-2-carboxamide], the IC50 was determined as 206 nM.
In turn, `Cc1cc(OC[C@@H]2CN(S(=O)(=O)c3c(C(N)=O)[nH]c4ccc(Cl)cc34)CCO2)ccc1-c1ccc(Cl)nc1` [Compound 88, (S)-5-chloro-3-((2-((4-(6-chloropyridin-3-yl)-3-methylphenoxy)methyl)morpholino)sulfonyl)-1H-indole-2-carboxamide] yielded an IC50 of 67 nM.
In turn, `NC(=O)c1[nH]c2ccc(Cl)cc2c1S(=O)(=O)N1CCO[C@H](COc2ccc(-c3ccccc3)cn2)C1` [Compound 81, (S)-5-chloro-3-((2-(((5-phenylpyridin-2-yl)oxy)methyl)morpholino)sulfonyl)-1H-indole-2-carboxamide] yielded an IC50 greater than 1000 nM.
On to `NC(=O)c1[nH]c2ccc(Cl)cc2c1S(=O)(=O)N1CCO[C@H](COc2cccc(-c3ccc(Cl)nc3)c2)C1` [Compound 86, (S)-5-chloro-3-((2-((3-(6-chloropyridin-3-yl)phenoxy)methyl)morpholino)sulfonyl)-1H-indole-2-carboxamide], for which the IC50 stood at 4.9 nM.
As for `Cc1ccc(OC[C@@H]2CN(S(=O)(=O)c3c(C(N)=O)[nH]c4ccc(Cl)cc34)CCO2)cc1-c1cccnc1F` [Compound 22, (S)-5-chloro-3-((2-((3-(2-fluoropyridin-3-yl)-4-methylphenoxy)methyl)morpholino)sulfonyl)-1H-indole-2-carboxamide], half-maximal inhibition (IC50) was put at 42.5 nM.
For the compound `NC(=O)c1[nH]c2ccc(Cl)cc2c1S(=O)(=O)N1CCO[C@H](COc2cc3ccccc3nn2)C1` [Compound 89, (S)-5-chloro-3-((2-((cinnolin-3-yloxy)methyl)morpholino)sulfonyl)-1H-indole-2-carboxamide], inhibition was half-maximal at 136 nM (IC50).
The value for `NC(=O)c1[nH]c2ccc(Cl)cc2c1S(=O)(=O)N1CCO[C@H](COc2ccc(F)c(-c3ccncc3)c2)C1` [Compound 28, (S)-5-chloro-3-((2-((4-fluoro-3-(pyridin-4-yl)phenoxy)methyl)morpholino)sulfonyl)-1H-indole-2-carboxamide] was 6.9 nM; that for `NC(=O)c1[nH]c2ccc(Cl)cc2c1S(=O)(=O)N1CCO[C@H](COc2cccc(-c3ccc(F)cc3)c2)C1` [Compound 11, (S)-5-chloro-3-((2-(((4′-fluoro-[1,1′-biphenyl]-3-yl)oxy)methyl)morpholino)sulfonyl)-1H-indole-2-carboxamide] was 15.4 nM.
The value for `NC(=O)c1[nH]c2ccc(Cl)cc2c1S(=O)(=O)N1CCO[C@H](COc2ccc(-c3ccc(F)nc3)cc2)C1` [Compound 46, (S)-5-chloro-3-((2-((4-(6-fluoropyridin-3-yl)phenoxy)methyl)morpholino)sulfonyl)-1H-indole-2-carboxamide] was 12.8 nM; that for `NC(=O)c1[nH]c2ccc(Cl)cc2c1S(=O)(=O)N1CCO[C@H](COc2cccc(-c3ccc(C(F)(F)F)nc3)c2)C1` [Compound 6, (S)-5-chloro-3-((2-((3-(6-(trifluoromethyl)pyridin-3-yl)phenoxy)methyl)morpholino)sulfonyl)-1H-indole-2-carboxamide] was 65 nM; that for `CN(C)c1ccc(-c2cccc(OC[C@@H]3CN(S(=O)(=O)c4c(C(N)=O)[nH]c5ccc(Cl)cc45)CCO3)c2)cn1` [Compound 5, (S)-5-chloro-3-((2-((3-(6-(dimethylamino)pyridin-3-yl)phenoxy)methyl)morpholino)sulfonyl)-1H-indole-2-carboxamide] was 30.4 nM.
`Cc1cc(-c2cc(OC[C@@H]3CN(S(=O)(=O)c4c(C(N)=O)[nH]c5ccc(Cl)cc45)CCO3)ccc2F)ccn1` [Compound 30, (S)-5-chloro-3-((2-((4-fluoro-3-(2-methylpyridin-4-yl)phenoxy)methyl)morpholino)sulfonyl)-1H-indole-2-carboxamide]: the 50% inhibitory concentration (IC50) is less than 100 nM.
`Cc1ccccc1-c1cc(OC[C@@H]2CN(S(=O)(=O)c3c(C(N)=O)[nH]c4ccc(Cl)cc34)CCO2)ccc1C` [Compound 24, (S)-5-chloro-3-((2-(((2′,6-dimethyl-[1,1′-biphenyl]-3-yl)oxy)methyl)morpholino)sulfonyl)-1H-indole-2-carboxamide] yielded an IC50 of 293 nM.
With `Cc1ncccc1-c1ccc(OC[C@@H]2CN(S(=O)(=O)c3c(C(N)=O)[nH]c4ccc(Cl)cc34)CCO2)cc1` [Compound 50, (S)-5-chloro-3-((2-((4-(2-methylpyridin-3-yl)phenoxy)methyl)morpholino)sulfonyl)-1H-indole-2-carboxamide], 3.2 nM corresponded to half-maximal inhibition (IC50).
As to `NC(=O)c1[nH]c2ccc(Cl)cc2c1S(=O)(=O)N1CCO[C@H](COc2ccc(-c3cccnc3)cc2)C1` [Compound 31, (S)-5-chloro-3-((2-((4-(pyridin-3-yl)phenoxy)methyl)morpholino)sulfonyl)-1H-indole-2-carboxamide], the IC50 worked out at 8.7 nM.
In turn, `Cc1cc(OC[C@@H]2CN(S(=O)(=O)c3c(C(N)=O)[nH]c4ccc(Cl)cc34)CCO2)ccc1-c1ccnc(F)c1` [Compound 72, (S)-5-chloro-3-((2-((4-(2-fluoropyridin-4-yl)-3-methylphenoxy)methyl)morpholino)sulfonyl)-1H-indole-2-carboxamide] registered an IC50 of 13.3 nM.
Take `NC(=O)c1[nH]c2ccc(Cl)cc2c1S(=O)(=O)N1CCO[C@H](COc2ccc(-c3ccccc3)cc2)C1` [Compound 33, (S)-3-((2-(([1,1′-biphenyl]-4-yloxy)methyl)morpholino)sulfonyl)-5-chloro-1H-indole-2-carboxamide]: the IC50 came out at 30.2 nM.
In the case of `COc1ccccc1-c1cc(OC[C@@H]2CN(S(=O)(=O)c3c(C(N)=O)[nH]c4ccc(Cl)cc34)CCO2)ccc1C` [Compound 23, (S)-5-chloro-3-((2-(((2′-methoxy-6-methyl-[1,1′-biphenyl]-3-yl)oxy)methyl)morpholino)sulfonyl)-1H-indole-2-carboxamide], half-maximal inhibition (IC50) was put at 132 nM.
`NC(=O)c1[nH]c2ccc(Cl)cc2c1S(=O)(=O)N1CCO[C@H](COc2ccccc2-c2ccc(F)nc2)C1` [Compound 59, (S)-5-chloro-3-((2-((2-(6-fluoropyridin-3-yl)phenoxy)methyl)morpholino)sulfonyl)-1H-indole-2-carboxamide] returned a half-inhibitory concentration (IC50) greater than 1000 nM.
The compound `COc1cc(-c2ccc(OC[C@@H]3CN(S(=O)(=O)c4c(C(N)=O)[nH]c5ccc(Cl)cc45)CCO3)cc2)ccn1` [Compound 47, (S)-5-chloro-3-((2-((4-(2-methoxypyridin-4-yl)phenoxy)methyl)morpholino)sulfonyl)-1H-indole-2-carboxamide] gave an IC50 of less than 100 nM.
As to `NC(=O)c1[nH]c2ccc(Cl)cc2c1S(=O)(=O)N1CCO[C@H](COc2ccccc2-c2ccncc2)C1` [Compound 56, (S)-5-chloro-3-((2-((2-(pyridin-4-yl)phenoxy)methyl)morpholino)sulfonyl)-1H-indole-2-carboxamide], the half-inhibitory concentration (IC50) is greater than 1000 nM.
The compound `COc1cc(-c2cccc(OC[C@@H]3CN(S(=O)(=O)c4c(C(N)=O)[nH]c5ccc(Cl)cc45)CCO3)c2)ccn1` [Compound 18, (S)-5-chloro-3-((2-((3-(2-methoxypyridin-4-yl)phenoxy)methyl)morpholino)sulfonyl)-1H-indole-2-carboxamide] yielded an IC50 of 7.3 nM.
